Laboratory results from US20250241347A1, “COMPOSITIONS AND METHODS FOR TASTE MODULATION” (INTERNATIONAL FLAVORS & FRAGRANCES INC., priority 2019, published 2025).

What was measured:
[1] = Masking effect on Reb A, trained panel; parameters: species or system human; settings: base Reb A 200 ppm in water; for Masking Intensity: panel average, scale 0-5
Excerpt: (§1) Preparation of Test Samples: […], oroxylin A-7 glucouronide, wogonoside, baicalein, oroxylin A and wogonin were purchased commercially. S. baicalensis extract (“Extract”) and cabohydrase-treated S. baicalensis extract (“Treated Extract”) were obtained as above in Example 1.
(§2) Subsequently, all compounds and extracts were applied to different bases for evaluating their off-taste masking functions.
(§3) Testing Procedure: The masking effects on the off-tastes (bitterness, sourness, astringency, lingering and drying aftertaste, etc.) associated with various food components was evaluated by a group of 16 trained panelist. Each provided a rank of masking intensity using the intensity scales of 0 to 5, where 0 represents “no masking effect,” 1 represents “minimal masking intensity” and 5 represents “the most masking intensity.” The average of the reported making intensity is presented in the following examples.
A base solution of Reb A was prepared in water (200 ppm). […] The flavor profile of the Reb A solutions with compounds or extracts were further evaluated and is reported in the following: […]

[2] = Masking effect on citric acid, trained panel; parameters: species or system human; settings: base citric acid 300 ppm in water; for Masking Intensity: panel average, scale 0-5
Excerpt: as §1, §2, §3
A base solution of citric acid was prepared in water (300 ppm). […] The flavor profile of the citric acid solutions with compounds or extracts were further evaluated and is reported in the following: […]

[3] = Masking effect on sorbic acid, trained panel; parameters: species or system human; settings: base sorbic acid 150 ppm in water; for Masking Intensity: panel average, scale 0-5
Excerpt: as §1, §2, §3
A base solution of sorbic acid was prepared in water (150 ppm). […] The flavor profile of the sorbic acid solutions with compounds or extracts were further evaluated and is reported in the following: […]

[4] = Masking effect on Reb M, trained panel; parameters: species or system human; settings: base Reb M 200 ppm in water, test sample 0.5 ppm; for Masking Intensity: panel average, scale 0-5
Excerpt: as §1, §2, §3
A base solution of Reb M was prepared in water (200 ppm). […] The flavor profile of the Reb M solutions with compounds or extracts were further evaluated and is reported in the following: […]

[5] = Masking effect on benzoic acid, trained panel; parameters: species or system human; settings: base benzoic acid 250 ppm in water; for Masking Intensity: panel average, scale 0-5
Excerpt: as §1, §2, §3
A base solution of benzoic acid was prepared in water (250 ppm). […] The flavor profile of the benzoic acid solutions with compounds or extracts was further evaluated and is reported in the following: […]

[6] = Masking effect on Acesulfame-K, trained panel; parameters: species or system human; settings: base Acesulfame-K 300 ppm in water; for Masking Intensity: panel average, scale 0-5
Excerpt: as §1, §2, §3
A base solution of Acesulfame-K was prepared in water (300 ppm). […] The flavor profile of the Acesulfame-K solutions with compounds or extracts were further evaluated and is reported in the following: […]

[7] = Masking effect on pea protein, trained panel; parameters: species or system human; settings: base TRUPRO pea protein 5% in water, test sample 0.5 ppm; for Masking Intensity: panel average, scale 0-5
Excerpt: as §1, §2, §3
A base solution of TRUPRO® pea protein (Solae LLC) was prepared in water (5%). […] The flavor profile of the pea protein solutions with compounds or extracts were further evaluated and is reported in the following: […]

[8] = Taste modulating activity of the individual compounds; settings: for taste modulation effect: flavone aglycones versus corresponding flavone glycosides; for taste modulating activity: individual compounds, Example 1
Procedure: With bio-transformation, most baicalin was converted to baicalein; oroxylin A glucuronide was converted to oroxylin A; and wogonoside was converted to wogonin. The activity of the individual compounds was also analyzed for taste modulating activity.

[9] = system: healthy subjects; settings: oral doses in the range of 100-2800 mg; cited from earlier work

## COc1c(OC2OC(C(=O)O)C(O)C(O)C2O)cc2oc(-c3ccccc3)cc(=O)c2c1O [Oroxylin A-7 glucuronide, 5,7-dihydroxy-6-methoxyflavone-7-O-β-D-glucuronopyranoside, reference compound]
[1]; test sample 0.5 ppm
  Flavor Profile: Slightly reduced astringency, licorice flavor
  Masking Intensity: 1
[2]; test sample 0.5 ppm
  Masking Intensity: 1
[3]; test sample 0.5 ppm
  Flavor Profile: Slightly reduced drying aftertaste
  Masking Intensity: 2
[4]
  Flavor Profile: Slightly reduced bitterness and lingering
  Masking Intensity: 2
[5]; test sample 0.5 ppm
  Masking Intensity: 1
[6]; test sample 0.5 ppm
  Masking Intensity: 1
[7]
  Masking Intensity: 1
[8]
  taste modulation effect: weak taste modulation effect
  taste modulating activity: some activity

## COc1c(OC2OC(C(=O)O)C(O)C(O)C2O)cc(O)c2c(=O)cc(-c3ccccc3)oc12 [Wogonoside, wogonin 7-O-β-D-glucuronide, reference compound]
[1]; test sample 0.5 ppm
  Flavor Profile: Slightly reduced astringency, licorice flavor
  Masking Intensity: 1
[2]; test sample 0.5 ppm
  Masking Intensity: 1
[3]; test sample 0.5 ppm
  Masking Intensity: 2
[4]
  Masking Intensity: 1
[5]; test sample 0.5 ppm
  Masking Intensity: 1
[6]; test sample 0.5 ppm
  Masking Intensity: 1
[7]
  Flavor Profile: Slightly reduced astringency and bitterness,
  Masking Intensity: 2
[8]
  taste modulation effect: weak taste modulation effect
  taste modulating activity: some activity

## O=c1cc(-c2ccccc2)oc2cc(O)c(O)c(O)c12 [Baicalein, 5,6,7-trihydroxyflavone]
[1]; test sample 0.5 ppm
  Masking Intensity: 3
[2]; test sample 0.01 ppm
  Masking Intensity: 1
[2]; test sample 0.1 ppm
  Flavor Profile: Slightly reduced tart taste
  Masking Intensity: 2
[2]; test sample 0.5 ppm
  Flavor Profile: Reduced tart taste
  Masking Intensity: 3
[2]; test sample 1 ppm
  Flavor Profile: Reduced tart taste
  Masking Intensity: 4
[2]; test sample 10 ppm
  Flavor Profile: Reduced tart taste, very slight bitterness
  Masking Intensity: 3
[2]; test sample 50 ppm
  Flavor Profile: Reduced tart taste, noticeable bitterness
  Masking Intensity: 2
[3]; test sample 0.001 ppm
  Masking Intensity: 0
[3]; test sample 0.01 ppm
  Masking Intensity: 1
[3]; test sample 0.1 ppm
  Masking Intensity: 2
[3]; test sample 0.5 ppm
  Masking Intensity: 3
[3]; test sample 1 ppm
  Flavor Profile: Reduced astringency, sourness, and drying
  Masking Intensity: 4
[3]; test sample 10 ppm
  Flavor Profile: Reduced astringency, sourness, and drying
  Masking Intensity: 4
[3]; test sample 50 ppm
  Flavor Profile: Reduced astringency, sourness, and drying
  Masking Intensity: 3
[4]
  Flavor Profile: Slightly reduced bitterness and lingering
  Masking Intensity: 3
[9]
  safety and tolerability: safe and well-tolerated
[5]; test sample 0.5 ppm
  Masking Intensity: 3
[6]; test sample 0.5 ppm
  Flavor Profile: Slightly reduced bitterness and lingering
  Masking Intensity: 2
[7]
  Flavor Profile: Reduced astringency and bitterness, less
  Masking Intensity: 3
[8]
  taste modulating activity: more active

## O=C(O)C1OC(Oc2cc3oc(-c4ccccc4)cc(=O)c3c(O)c2O)C(O)C(O)C1O (centres unmarked) [Baicalin, 5,6-dihydroxy-7-O-glucuronide flavone, reference compound]
[1]; test sample 0.5 ppm
  Masking Intensity: 1
[2]; test sample 0.5 ppm
  Masking Intensity: 1
[3]; test sample 0.5 ppm
  Masking Intensity: 1
[4]
  Masking Intensity: 1
[5]; test sample 0.5 ppm
  Masking Intensity: 1
[6]; test sample 0.5 ppm
  Masking Intensity: 1
[7]
  Masking Intensity: 1
[8]
  taste modulation effect: weak taste modulation effect
  taste modulating activity: some activity

## COc1c(O)cc2oc(-c3ccccc3)cc(=O)c2c1O [Oroxylin A, 5,7-dihydroxy-6-methoxyflavone]
[1]; test sample 0.01 ppm
  Flavor Profile: Slightly reduced astringency, licorice flavor
  Masking Intensity: 2
[1]; test sample 0.1 ppm
  Masking Intensity: 3
[1]; test sample 0.5 ppm
  Masking Intensity: 5
[1]; test sample 10 ppm
  Masking Intensity: 4
[1]; test sample 50 ppm
  Masking Intensity: 2
[2]; test sample 0.5 ppm
  Flavor Profile: Reduced tart taste, more pleasant
  Masking Intensity: 5
[3]; test sample 0.5 ppm
  Flavor Profile: Reduced astringency, sourness, and drying
  Masking Intensity: 4
[4]
  Flavor Profile: Reduced bitterness and lingering aftertaste,
  Masking Intensity: 5
[5]; test sample 0.001 ppm
  Masking Intensity: 0
[5]; test sample 0.01 ppm
  Masking Intensity: 1
[5]; test sample 0.1 ppm
  Masking Intensity: 3
[5]; test sample 0.5 ppm
  Flavor Profile: Reduced astringency, sourness, and drying
  Masking Intensity: 4
[5]; test sample 1 ppm
  Flavor Profile: Reduced astringency, sourness, and drying
  Masking Intensity: 5
[5]; test sample 10 ppm
  Flavor Profile: Reduced astringency, sourness, and drying
  Masking Intensity: 4
[5]; test sample 50 ppm
  Flavor Profile: Reduced astringency, sourness, and drying
  Masking Intensity: 3
[6]; test sample 0.01 ppm
  Masking Intensity: 1
[6]; test sample 0.1 ppm
  Flavor Profile: Reduced bitterness and lingering aftertaste
  Masking Intensity: 3
[6]; test sample 0.5 ppm
  Flavor Profile: Reduced bitterness and lingering aftertaste,
  Masking Intensity: 5
[6]; test sample 10 ppm
  Flavor Profile: Reduced lingering aftertaste, very slight
  Masking Intensity: 4
[6]; test sample 50 ppm
  Flavor Profile: Reduced lingering aftertaste, noticeable
  Masking Intensity: 2
[7]
  Flavor Profile: Reduced astringency and bitterness, less
  Masking Intensity: 4
[8]
  taste modulating activity: more active
